Experimental findings from US12029682B2, “Spray ejector mechanisms and devices providing charge isolation and controllable droplet charge, and low dosage volume ophthalmic administration” (EYENOVIA, INC., priority 2012, dated 2024) are described below.

“Also recorded” adds a separate entry of the source.

Data set [1] deals with glaucomatous beagles. The experiment in a line: Intraocular pressure (IOP), TonoVet, in glaucomatous beagles. In kind it is in vivo, beagle dog.
Data set [2] concerns glaucomatous beagles. The experiment in a line: Ocular irritation observations in glaucomatous beagles. In kind it is in vivo, beagle dog. The settings on record: 6 μl of 0.03% via spray ejector device, compared to traditional eye drop treatment. As to the method: Active drug delivery begins on study day eight. For five days, IOP and PD measurements are taken at 0900. Immediately after 0900 measurements (time 0), each animal receives 6 μl of generic latanoprost in its assigned eye with the ejector device, followed by a second dosing 3 minutes later of an additional 6 μl (to avoid overloading the conjunctival sac). The contralateral eye receives a clinical dose (one drop) of the same commercially-available topical drug from FDA approved container (positive control). The ejector device is checked for accuracy before and after every use (Table 1). Standard measurements continue throughout each day (at 0:30, 0:45, 1, 2, 7 hrs). Possible endpoints include, but are not limited to, excessive ocular irritation, ocular damage, or other illness and injury. […]
On study days 5-9, IOP and PD measurements were taken at approximately 0900 h (time 0). Immediately after these measurements, each animal received 6 μl of 0.03% bimatoprost in its assigned eye via the spray ejector device. The contralateral eye received a clinical dose (one drop) of the same commercially available topical drug from a traditional eyedropper (positive control). The spray ejector device was checked for accuracy before and after every use and required a 10% delivered dose accuracy in pretreatment. Standard measurements continued throughout each day at 0, 1, 2, 4, and 7 hours. Possible endpoints included, but were not limited to, excessive ocular irritation, ocular damage, and other illness or injury. No statistical crossover was utilized for this study.
Ophthalmic examinations (slit lamp with fluorescein and indirect ophthalmoscopy) were performed on the eyes of each animal prior to Study Day 1. Ocular findings were scored according to the McDonald-Shadduck Score System. Ocular findings were recorded using a standardized data collection sheet. Macroscopic observations were recorded in accordance with the Draize Scale for Scoring Ocular Lesions. Animals were assigned treatments based on basic randomization prior to study day one.
Following a 7 day rest period, the eye choice was reversed. Measurements of IOP, heart rate and pupil diameter (PD) were made at 0:15, 0:30, 0:45, 1, 2, 4, 7, and 18 hours in the primary and crossover study. A veterinary ophthalmologist evaluated each test subject before and after the study for evidence of ocular side effects.
Ophthalmic examinations (slit lamp with fluorescein and indirect ophthalmoscopy) were performed on the eyes of each animal prior to study day 1. Ocular findings were scored according to the McDonald-Shadduck score system and macroscopic observations were recorded in accordance with the Draize scale for scoring ocular lesions. Ocular findings were recorded using a standardized data collection sheet.

Take `CCNC(=O)CCC/C=C\C[C@@H]1[C@@H](/C=C/[C@@H](O)CCc2ccccc2)[C@H](O)C[C@@H]1O` [bimatoprost]: the “duration of the dose vs spray ejector device” value in data set [1] (0.03%, one drop by eyedropper) is “greater”. The “effectiveness at lowering/controlling IOP vs traditional therapy” value in data set [1] (6 μl of 0.03% once daily morning via spray ejector device vs one drop (26-30 μl)) was “as effective at lowering IOP and constricting the pupil as traditional therapy; also recorded: as effective at controlling IOP as is the traditional therapy”. In addition, the “IOP values vs baseline” value in data set [1] (6 μl of 0.03% via spray ejector device) was “lower than baseline”. For the same molecule, the irritation result in data set [2] is listed as “Markedly less irritation; also recorded: Lack of ocular irritation”.
